ChEMBL document CHEMBL1157528, “Mixed tetraoxanes containing the acetone subunit as antimalarials” (Bioorg Med Chem, 2008)
Active and inactive are the calls of the source. The rule behind the calls is not given here.

Experiments:
Plasmodium falciparum [1] = assay: microbe, parasite or virus in culture; conditions: RCS
Description: Antimalarial activity against chloroquine-resistant, mefloquine-sensitive Plasmodium falciparum RCS

Plasmodium falciparum [2] = assay: microbe, parasite or virus in culture; conditions: TM91C235
Description: Antimalarial activity against mefloquine, chloroquine and quinine-resistant Plasmodium falciparum TM91C235

Plasmodium falciparum [3] = assay: microbe, parasite or virus in culture; conditions: W2
Description: Antimalarial activity against chloroquine and pyrimethamine-resistant Plasmodium falciparum W2

Plasmodium falciparum [4] = assay: microbe, parasite or virus in culture; conditions: D6
Description: Antimalarial activity against chloroquine and pyrimethamine-sensitive Plasmodium falciparum D6

Plasmodium berghei [5] = assay: Antimalarial activity as survival time in Plasmodium berghei KBG173 infected CD1 mice (Mus musculus) at 20 mg/kg/day peroral dose; assay type: functional; conditions: route oral
Plasmodium berghei [6] = assay: Antimalarial activity as survival time against Plasmodium berghei KBG173 infected CD1 mice (Mus musculus) at 80 mg/kg/day peroral dose 3 - 5 days post infection; assay type: functional; conditions: route oral
Plasmodium berghei [7] = assay: Antimalarial activity as parasite-free survivors at day 31 of Plasmodium berghei KBG173 infected CD1 mice (Mus musculus) at 320 mg/kg/day peroral dose; assay type: functional, organism-based
Plasmodium berghei [8] = assay: Antimalarial activity as parasite-free survivors at day 31 of Plasmodium berghei KBG173 infected CD1 mice (Mus musculus) at 20 mg/kg/day peroral dose; assay type: functional, organism-based
Plasmodium berghei [9] = assay: Antimalarial activity as survival time in Plasmodium berghei KBG173 infected CD1 mice (Mus musculus) at 320 mg/kg/day peroral dose; assay type: functional; conditions: route oral
[10] = Metabolic stability in human liver microsomes assessed as half life at 10 uM; assay type: ADME, Microsome
[11] = Metabolic stability in mouse liver microsomes assessed as half life at 10 uM; assay type: ADME, Microsome
Plasmodium falciparum [12] = assay: Relative activity against Plasmodium falciparum TM91C235 as fold-lower IC90/IC50 ratio relative to mefloquine
[13] = Cytotoxicity against human NCI60 cells; assay type: functional
A498 = assay: Antiproliferative activity against human A498 cells; assay type: functional

Structure (SMILES) | IC50 (Plasmodium falciparum [1]) | IC90 (Plasmodium falciparum [1]) | IC50 (Plasmodium falciparum [2]) | IC90 (Plasmodium falciparum [2]) | IC50 (Plasmodium falciparum [3]) | IC90 (Plasmodium falciparum [3]) | IC50 (Plasmodium falciparum [4]) | IC90 (Plasmodium falciparum [4]) | half-life at 10 µM [10] | half-life at 10 µM [11] | GI50 [13] | LC50 [13] | TGI [13] | also measured
CC(=O)O[C@H]1C[C@H]2[C@@H]([C@H](OC(C)=O)C[C@@H]3CC4(CC[C@@]32C)OOC(C)(C)OO4)[C@@H]2CC[C@H]([C@H](C)CCC(=O)NN)[C@@]12C | 7.03 nM | 19.5 nM | 28.5 nM | 38.1 nM | 16.4 nM | 22.9 nM | 28.1 nM | 46.3 nM | – | – | – | – | – | –
COC(=O)CC[C@@H](C)[C@H]1CC[C@H]2[C@@H]3[C@H](OC(C)=O)C[C@@H]4CC5(CC[C@]4(C)[C@H]3C[C@H](OC(C)=O)[C@]12C)OOC(C)(C)OO5 | – | – | 26 nM | 57.3 nM | 11.7 nM | 20.7 nM | 15 nM | 26.7 nM | – | – | – | – | – | Survival (Plasmodium berghei [5]): 13 days; Survival (Plasmodium berghei [6]): 16 days; Activity (Plasmodium berghei [7]): inactive; Activity (Plasmodium berghei [8]): inactive; Survival (Plasmodium berghei [9]): 18 days
CC(=O)O[C@H]1C[C@H]2[C@@H]([C@H](OC(C)=O)C[C@@H]3CC4(CC[C@@]32C)OOC(C)(C)OO4)[C@@H]2CC[C@H]([C@H](C)CCC(=O)Nc3ccccc3)[C@@]12C | 1.89 nM | 4.45 nM | 15.8 nM | 20.9 nM | 5.02 nM | 14.3 nM | 6.97 nM | 20.8 nM | 19 min | 16 min | – | – | – | Survival (Plasmodium berghei [5]): 23 days; Survival (Plasmodium berghei [6]): 25 days; fold-lower IC90/IC50 ratio vs mefloquine (Plasmodium falciparum [12]): 3; Survival (Plasmodium berghei [9]): 23 days
COC(=O)CNC(=O)CC[C@@H](C)[C@H]1CC[C@H]2[C@@H]3[C@H](OC(C)=O)C[C@@H]4CC5(CC[C@]4(C)[C@H]3C[C@H](OC(C)=O)[C@]12C)OOC(C)(C)OO5 | – | – | – | – | 5.98 nM | – | 14.3 nM | – | 70 min | 32 min | 8510 nM | 77600 nM | 33900 nM | –
C[C@H](CCC(N)=O)[C@H]1CC[C@H]2[C@@H]3[C@H](O)C[C@@H]4CC5(CC[C@]4(C)[C@H]3C[C@H](O)[C@]12C)OOC(C)(C)OO5 | 38.7 nM | 168 nM | 228 nM | 498 nM | 153 nM | 234 nM | 215 nM | 347 nM | > 60 min | > 60 min | 980 nM | 11200 nM | 3800 nM | GI50 (A498): 92 nM; TGI (A498): 710 nM; CC50 (A498; read-out: LC50 (the source's name)): 11500 nM
CNC(=O)CC[C@@H](C)[C@H]1CC[C@H]2[C@@H]3[C@H](OC(C)=O)C[C@@H]4CC5(CC[C@]4(C)[C@H]3C[C@H](OC(C)=O)[C@]12C)OOC(C)(C)OO5 | 11.6 nM | 22.3 nM | 31.3 nM | 74.8 nM | 18.1 nM | 20.7 nM | 46.9 nM | 78.3 nM | > 60 min | > 60 min | 4470 nM | 47900 nM | 18200 nM | –
CC(=O)O[C@H]1C[C@H]2[C@@H]([C@H](OC(C)=O)C[C@@H]3CC4(CC[C@@]32C)OOC(C)(C)OO4)[C@@H]2CC[C@H]([C@H](C)CCC(=O)N(C)C)[C@@]12C | 7.19 nM | 14 nM | 25.1 nM | 50.9 nM | 17.3 nM | 31.6 nM | 35.5 nM | 71.5 nM | 49 min | 17 min | 17000 nM | 75900 nM | 41700 nM | –
